One assay deals with T1, full-length LRRK2 G2019S (Homo sapiens, UniProt Q5S007, G2019S).
T1 construct: DYKDDDDK (FLAG)
Description: LRRK2-G2019S kinase activity assay (Lanthascreen TR-FRET). Format: biochemical. The following applies: 1.1 mM ATP. On the procedure: (§1) The potency of compounds was evaluated in vitro using the Lanthascreen® technology (ThermoFisher Scientific).
(§2) In a typical experiment, the reaction assay buffer contains 50 mM Tris pH8.2, 1 mM EGTA, 2.5 mM MgCl2, 0.05% Triton X100, 0.15% BSA and 1 mM DTT. The detection of the assay is performed using 1 nM Terbium labeled anti-phospho-LRRKtide (ThermoFisher Scientific) diluted in a TR-FRET buffer (ThermoFisher Scientific).
(§3) The experimental procedure was performed with Greiner small volume® 384-well. […] The working solution of compounds was prepared in a separate Greiner microplate.
(§4) The kinase reaction was initiated by addition of the ATP/LRRKtide substrate mix diluted in the reaction assay buffer. The reaction mix was incubated for at least 10 minutes at room temperature (initial velocity conditions). Reaction was stopped by addition of Terbium labeled anti-phospho-LRRKtide diluted into the detection buffer supplemented with EDTA (ThermoFisher Scientific). Plates are incubated for at least 30 minutes at room temperature and read on an Envision™ multimode plate reader (PerkinElmer) with LanthaScreen™. The TR-FRET 520:495 nm emission ratio was calculated and used to determine the IC50 value from a dose response curve fit to the 4-parameter logistic equation. The activity with respect to LRRK2 kinase in this test is given by the concentration which inhibits 50% of the LRRK2 activity (or IC50) in nM.
On the technique in general: In TR-FRET formats the signal depends on donor and acceptor labels being close together.

Assay [1] has as its target T2, full-length LRRK2 wild type (Homo sapiens, UniProt Q5S007).
T2 construct: DYDDDDK tagged full-length LRRK2 wild type is used
Description: LRRK2 WT assay (Assay A, Lanthascreen TR-FRET, 500 uM ATP). Format: biochemical. As to conditions: Assay A (values without *). The protocol: as §1, §2, §3, §4

Results on 18 molecules are retold here after US20240383901A1, “SUBSTITUTED PYRROLO[2,3-D]PYRIMIDINES, THEIR PREPARATION AND THEIR THERAPEUTIC APPLICATION” (SANOFI, priority 2021, published 2024).

Each structure is given as a SMILES string.

T2 sequence (Q5S007 whole entry): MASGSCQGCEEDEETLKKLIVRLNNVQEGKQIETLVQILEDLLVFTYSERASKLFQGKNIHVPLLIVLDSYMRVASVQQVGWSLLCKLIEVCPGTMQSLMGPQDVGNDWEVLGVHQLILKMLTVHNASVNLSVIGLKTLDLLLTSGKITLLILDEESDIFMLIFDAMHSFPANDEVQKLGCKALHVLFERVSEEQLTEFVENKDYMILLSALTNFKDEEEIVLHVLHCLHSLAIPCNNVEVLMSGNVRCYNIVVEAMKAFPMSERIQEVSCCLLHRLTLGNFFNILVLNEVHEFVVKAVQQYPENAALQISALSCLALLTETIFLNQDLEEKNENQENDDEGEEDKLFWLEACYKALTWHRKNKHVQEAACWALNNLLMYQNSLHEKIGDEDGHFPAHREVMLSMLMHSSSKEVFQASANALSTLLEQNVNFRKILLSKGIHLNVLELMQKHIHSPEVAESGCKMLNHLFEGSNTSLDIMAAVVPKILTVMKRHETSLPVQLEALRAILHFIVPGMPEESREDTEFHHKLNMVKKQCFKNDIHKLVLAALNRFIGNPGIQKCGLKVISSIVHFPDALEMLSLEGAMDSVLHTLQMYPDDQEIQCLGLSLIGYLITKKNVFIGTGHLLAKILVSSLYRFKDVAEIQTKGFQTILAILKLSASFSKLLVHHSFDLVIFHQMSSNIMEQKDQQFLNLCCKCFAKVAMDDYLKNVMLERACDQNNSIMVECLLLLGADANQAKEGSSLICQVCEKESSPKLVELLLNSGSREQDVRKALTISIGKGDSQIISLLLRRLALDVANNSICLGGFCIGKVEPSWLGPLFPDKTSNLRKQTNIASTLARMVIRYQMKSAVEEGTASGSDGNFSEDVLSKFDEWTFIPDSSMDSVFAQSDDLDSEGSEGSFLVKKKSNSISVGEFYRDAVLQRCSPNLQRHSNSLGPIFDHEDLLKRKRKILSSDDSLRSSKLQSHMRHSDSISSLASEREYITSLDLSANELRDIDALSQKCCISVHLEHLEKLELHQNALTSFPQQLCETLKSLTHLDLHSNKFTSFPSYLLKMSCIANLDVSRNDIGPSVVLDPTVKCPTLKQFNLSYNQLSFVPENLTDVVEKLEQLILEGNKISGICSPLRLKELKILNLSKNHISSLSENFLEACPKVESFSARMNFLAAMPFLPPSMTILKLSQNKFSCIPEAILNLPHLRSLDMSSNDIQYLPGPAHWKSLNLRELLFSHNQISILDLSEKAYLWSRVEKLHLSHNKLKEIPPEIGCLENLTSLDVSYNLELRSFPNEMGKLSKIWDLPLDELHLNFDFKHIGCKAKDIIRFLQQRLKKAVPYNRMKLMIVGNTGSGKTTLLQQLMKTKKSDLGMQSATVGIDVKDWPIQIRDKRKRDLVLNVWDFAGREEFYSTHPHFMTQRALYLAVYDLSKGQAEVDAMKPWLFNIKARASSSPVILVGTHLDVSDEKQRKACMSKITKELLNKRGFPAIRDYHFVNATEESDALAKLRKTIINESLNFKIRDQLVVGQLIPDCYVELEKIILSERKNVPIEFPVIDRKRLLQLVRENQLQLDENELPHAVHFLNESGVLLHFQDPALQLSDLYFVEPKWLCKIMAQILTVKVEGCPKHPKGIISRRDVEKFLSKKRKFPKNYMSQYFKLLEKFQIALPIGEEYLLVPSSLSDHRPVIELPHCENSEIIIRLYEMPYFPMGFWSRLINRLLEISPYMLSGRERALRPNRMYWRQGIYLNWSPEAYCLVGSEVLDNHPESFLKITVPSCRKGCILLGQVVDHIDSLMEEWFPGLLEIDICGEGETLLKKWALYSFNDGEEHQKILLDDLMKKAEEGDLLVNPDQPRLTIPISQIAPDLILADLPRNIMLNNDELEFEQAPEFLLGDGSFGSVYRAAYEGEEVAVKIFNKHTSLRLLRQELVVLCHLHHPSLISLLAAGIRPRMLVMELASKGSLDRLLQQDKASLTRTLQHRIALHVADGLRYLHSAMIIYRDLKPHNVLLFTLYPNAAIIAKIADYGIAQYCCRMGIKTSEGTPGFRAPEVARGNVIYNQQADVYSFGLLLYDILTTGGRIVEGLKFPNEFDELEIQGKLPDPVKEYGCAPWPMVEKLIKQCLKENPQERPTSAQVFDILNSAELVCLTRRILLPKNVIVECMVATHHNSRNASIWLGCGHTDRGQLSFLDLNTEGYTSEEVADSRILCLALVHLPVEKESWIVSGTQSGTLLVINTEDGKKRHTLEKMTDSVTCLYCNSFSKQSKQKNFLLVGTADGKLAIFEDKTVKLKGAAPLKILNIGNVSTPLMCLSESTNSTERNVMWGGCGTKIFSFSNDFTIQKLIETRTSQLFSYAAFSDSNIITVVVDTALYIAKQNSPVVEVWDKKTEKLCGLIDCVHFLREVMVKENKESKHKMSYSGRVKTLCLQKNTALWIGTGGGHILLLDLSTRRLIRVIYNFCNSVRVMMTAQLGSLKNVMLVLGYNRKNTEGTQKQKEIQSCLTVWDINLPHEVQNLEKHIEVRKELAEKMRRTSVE
T1 sequence (Q5S007 whole entry G2019S): as the sequence (Q5S007 whole entry) above, with G2019S counted along it

What is called IC50 is the point on the concentration scale where inhibition reaches its midpoint. Lower therefore signals inhibition by little substance. `C[C@@H]1COCC[C@H]1n1c(C#N)cc2cnc(Nc3cn(CCO)nc3OC3COC3)nc21` (single isomer, unassigned) [Example 161, 2-((1-(2-hydroxyethyl)-3-(oxetan-3-yloxy)-1 H-pyrazol-4-yl)amino)-7-(trans-3-methyltetrahydro-2H-pyran-4-yl)-7H-pyrrolo[2,3-d]pyrimidine-6-carbonitrile]: the IC50 against full-length LRRK2 G2019S was found to be 14 nM; in assay [1], 7 nM.
Take `CC(=O)N1CC(Oc2nn(C)cc2Nc2ncc3cc(C#N)n([C@H]4COC[C@@H]4C)c3n2)C1` [Example 1, 2-[[3-(1-acetylazetidin-3-yl)oxy-1-methyl-pyrazol-4-yl]amino]-7-[(3R,4R)-4-methyltetrahydrofuran-3-yl]pyrrolo[2,3-d]pyrimidine-6-carbonitrile]: the concentration for half-maximal inhibition (IC50) turned out to be 5 nM against full-length LRRK2 G2019S and 6 nM in assay [1].
Take `C[C@H]1COC[C@@H]1n1c(C#N)cc2cnc(Nc3cn(C)nc3OC3COC3)nc21` [Example 8, 2-[[1-methyl-3-(oxetan-3-yloxy)pyrazol-4-yl]amino]-7-[(3R,4R)-4-methyltetrahydrofuran-3-yl]pyrrolo[2,3-d]pyrimidine-6-carbonitrile]: the IC50 on full-length LRRK2 G2019S turned out to be 4 nM; in assay [1], 6 nM.
As to `CC(CO)n1cc(Nc2ncc3cc(C#N)n([C@H]4COC[C@@H]4C)c3n2)c(OC2COC2)n1` (stereo partly drawn) [Example 9, 2-[[1-[2-Hydroxy-1-methyl-ethyl]-3-(oxetan-3-yloxy)pyrazol-4-yl]amino]-7-[(3R,4R)-4-methyltetrahydrofuran-3-yl]pyrrolo[2,3-d]pyrimidine-6-carbonitrile], the IC50 (on full-length LRRK2 G2019S; in assay [1]) was 5 nM each time.
As to `C[C@H]1COC[C@@H]1n1c(C#N)cc2cnc(Nc3cn(CS(C)(=O)=O)nc3OC3COC3)nc21` [Example 14, 2-[[1-(Methylsulfonylmethyl)-3-(oxetan-3-yloxy)pyrazol-4-yl]amino]-7-[(3R,4R)-4-methyltetrahydrofuran-3-yl]pyrrolo[2,3-d]pyrimidine-6-carbonitrile], the IC50 (on full-length LRRK2 G2019S; in assay [1]) was 2 nM in each case.
`[2H]C([2H])([2H])n1cc(Nc2ncc3cc(C#N)n([C@H]4COC[C@@H]4C)c3n2)c(OC2COC2)n1` [Example 19, 2-((1-(Methyl-d3)-3-(oxetan-3-yloxy)-1 H-pyrazol-4-yl)amino)-7-((3R,4R)-4-methyltetrahydrofuran-3-yl)-7H-pyrrolo[2,3-d]pyrimidine-6-carbonitrile]: the IC50 (on full-length LRRK2 G2019S; in assay [1]) was 5 nM throughout.
Turning to `C[C@H]1COC[C@@H]1n1c(C#N)cc2cnc(Nc3ccc(C(C)(C)O)cc3OC3COC3)nc21` [Example 20, 2-((4-(2-Hydroxypropan-2-yl)-2-(oxetan-3-yloxy)phenyl)amino)-7-((3R,4R)-4-methyltetrahydrofuran-3-yl)-7H-pyrrolo[2,3-d]pyrimidine-6-carbonitrile], the IC50 (on full-length LRRK2 G2019S; in assay [1]) was 3 nM throughout.
For the molecule `CC(C)Oc1nn(CC(F)(F)F)cc1Nc1ncc2cc(C#N)n([C@H]3COC[C@@H]3C)c2n1` [Example 25, 2-((3-Isopropoxy-1-(2,2,2-trifluoroethyl)-1H-pyrazol-4-yl)amino)-7-((3R,4R)-4-methyltetrahydrofuran-3-yl)-7H-pyrrolo[2,3-d]pyrimidine-6-carbonitrile], the IC50 (against full-length LRRK2 G2019S; in assay [1]) was 1 nM in each case.
`CC(C)Oc1nn(C)cc1Nc1ncc2cc(C#N)n([C@H]3COC[C@@H]3C)c2n1` [Example 26, 2-((3-Isopropoxy-1-methyl-1H-pyrazol-4-yl)amino)-7-((3R,4R)-4-methyltetrahydrofuran-3-yl)-7H-pyrrolo[2,3-d]pyrimidine-6-carbonitrile]: the IC50 (against full-length LRRK2 G2019S; in assay [1]) was 1 nM each time.
For `C[C@H]1COC[C@@H]1n1c(C#N)cc2cnc(Nc3cn(C(C)(C)C#N)nc3OC3COC3)nc21` [Example 27, 2-((1-(2-Cyanopropan-2-yl)-3-(oxetan-3-yloxy)-1H-pyrazol-4-yl)amino)-7-((3R,4R)-4-methyltetrahydrofuran-3-yl)-7H-pyrrolo[2,3-d]pyrimidine-6-carbonitrile], the IC50 (against full-length LRRK2 G2019S; in assay [1]) was 1 nM throughout.
Turning to `[2H]C([2H])([2H])n1cc(Nc2ncc3cc(C#N)n([C@H]4COC[C@@H]4C)c3n2)c(OC2CC2)n1` [Example 28, 2-((3-Cyclopropoxy-1-(methyl-d3)-1H-pyrazol-4-yl)amino)-7-((3R,4R)-4-methyltetrahydrofuran-3-yl)-7H-pyrrolo[2,3-d]pyrimidine-6-carbonitrile], the IC50 (against full-length LRRK2 G2019S; in assay [1]) was 3 nM each time.
Regarding `CC(C)Oc1nn(C(C)(C)C#N)cc1Nc1ncc2cc(C#N)n([C@H]3COC[C@@H]3C)c2n1` [Example 29, 2-((1-(2-Cyanopropan-2-yl)-3-isopropoxy-1H-pyrazol-4-yl)amino)-7-((3R,4R)-4-methyltetrahydrofuran-3-yl)-7H-pyrrolo[2,3-d]pyrimidine-6-carbonitrile], the IC50 (against full-length LRRK2 G2019S; in assay [1]) was 1 nM throughout.
On to `C[C@H]1COC[C@@H]1n1c(C#N)cc2cnc(Nc3cn(C4COC4)nc3OC3CC3)nc21` [Example 30, 2-((3-Cyclopropoxy-1-(oxetan-3-yl)-1H-pyrazol-4-yl)amino)-7-((3R,4R)-4-methyltetrahydrofuran-3-yl)-7H-pyrrolo[2,3-d]pyrimidine-6-carbonitrile], for which the IC50 on full-length LRRK2 G2019S was 3 nM; in assay [1] it was 5 nM.
On to `CC(C)Oc1nn(C2COC2)cc1Nc1ncc2cc(C#N)n([C@H]3COC[C@@H]3C)c2n1` [Example 31, 2-((3-Isopropoxy-1-(oxetan-3-yl)-1H-pyrazol-4-yl)amino)-7-((3R,4R)-4-methyltetrahydrofuran-3-yl)-7H-pyrrolo[2,3-d]pyrimidine-6-carbonitrile], for which the IC50 (against full-length LRRK2 G2019S; in assay [1]) was 2 nM in each case.
Regarding `C[C@H]1COC[C@@H]1n1c(C#N)cc2cnc(Nc3cn(C)nc3OCC(C)(C)O)nc21` [Example 32, 2-((3-(2-Hydroxy-2-methylpropoxy)-1-methyl-1H-pyrazol-4-yl)amino)-7-((3R,4R)-4-methyltetrahydrofuran-3-yl)-7H-pyrrolo[2,3-d]pyrimidine-6-carbonitrile], the IC50 (on full-length LRRK2 G2019S; in assay [1]) was 7 nM each time.
Consider `COCn1cc(Nc2ncc3cc(C#N)n([C@H]4COC[C@@H]4C)c3n2)c(OC2COC2)n1` [Example 33, 2-((1-(Methoxymethyl)-3-(oxetan-3-yloxy)-1H-pyrazol-4-yl)amino)-7-((3R,4R)-4-methyltetrahydrofuran-3-yl)-7H-pyrrolo[2,3-d]pyrimidine-6-carbonitrile], for which the IC50 at full-length LRRK2 G2019S was 9 nM; in assay [1] it was 14 nM.
Taken in the same sequence, the figures for `C[C@H]1COC[C@@H]1n1c(C#N)cc2cnc(Nc3cn(S(C)(=O)=O)nc3OC3COC3)nc21` [Example 34, 2-((1-(Methylsulfonyl)-3-(oxetan-3-yloxy)-1H-pyrazol-4-yl)amino)-7-((3R,4R)-4-methyltetrahydrofuran-3-yl)-7H-pyrrolo[2,3-d]pyrimidine-6-carbonitrile] were 5 nM and 7 nM.
Taken in the same sequence, the figures for `COCn1cc(Nc2ncc3cc(C#N)n([C@H]4COC[C@@H]4C)c3n2)c(OC2CC2)n1` [Example 35, 2-((3-Cyclopropoxy-1-(methoxymethyl)-1H-pyrazol-4-yl)amino)-7-((3R,4R)-4-methyltetrahydrofuran-3-yl)-7H-pyrrolo[2,3-d]pyrimidine-6-carbonitrile] were 6 nM and 4 nM.
